For this test, the target named is human SPR (Homo sapiens (Human), UniProt P35270). The test is described as follows: Evaluation Example 2: Measurement of human SPR inhibitory activity (seven concentrations, sepiapterin absorbance at 420 nm). The test is classed as biochemical. The protocol:
Human SPR was prepared as described below. The full-length human SPR (1-261) cDNA was purchased from Eurofins Genomics as an artificially synthesized plasmid containing a DNA sequence optimized for the E. coli expression system so that the sequence of the expressed protein after transcription and translation matches the sequence described in UniprotKB (P35270).
Linearized insert and vector were prepared by PCR using primers designed for amplification of human SPR cDNA and primers designed to contain the thrombin recognition sequence of pET28a (Novagen) and a polyhistidine tag. Cloning was performed using In-Fusion (registered trademark) HD Cloning Kit (TaKaRa) to thereby construct a human SPR expression plasmid. The resultant human SPR expression plasmid was transformed into BL21 (DE3) competent cells (INVITROGEN).
The cells were inoculated into LB medium (1% triptone, 0.5% yeast extract, 1% sodium chloride) containing […] of kanamycin, and then precultured at 37° C. overnight. The precultured cells were inoculated into TB medium (1.2% triptone, 2.4% yeast extract, 9.4% dipotassium hydrogen phosphate, 2.2% potassium dihydrogen phosphate, 0.8% glycerin) containing […] of kanamycin, and the cultured at 37° C., to thereby induce SPR expression with 0.5 mM IPTG for four hours. After the induction, the cells were collected by centrifugation at 6,000 G for 30 minutes and washed with PBS, and the washing was discarded. The washed cells were suspended in buffer solution A (20 mM MES, pH 6.5, 100 mM sodium chloride, 1 mM DTT, 5 mM imidazole). Subsequently, the cell suspension was subjected to ultrasonic treatment to thereby homogenize the cells. The cell homogenate was clarified by centrifugation at 30,000 G for 60 minutes and then filtered with a […]. The filtrate was allowed to pass through HisTrapFF 5 mL column (GE Healthcare). The resin was washed with buffer A, and then gradient elution was performed with buffer B (20 mM MES, pH 6.5, 100 mM sodium chloride, 1 mM DTT, 500 mM imidazole). Thrombin was added to a fraction containing the SPR protein, and the mixture was dialyzed in buffer A overnight, to thereby cleave the tag. After removal of the thrombin by with Benzamidine Sepharose 4 FF (GE Healthcare), the resultant product was allowed to pass through the HisTrapFF 5 mL column, to thereby remove the tag, followed by concentration with Amicon Ultra 10,000 NMWL (Merck Millipore). The concentrate was purified by gel filtration using HiLoad 16/60 Superdex 75 pg (GE Healthcare) equilibrated with buffer C (20 mM MES, pH 6.5, 100 mM sodium chloride, 1 mM DTT). The fraction containing SPR protein was concentrated and then cryopreserved at −80° C.
Human SPR inhibitory activity was measured by using a 384-well low adsorption clear plate (Greiner) with buffer D containing 100 mM Tris-HCl (pH 7.5) (Thermo Fisher Scientific) and 0.01% bovine serum albumin (Sigma). A compound was diluted with DMSO to achieve seven different final concentrations; i.e., 0.14 nM, 0.41 nM, 1.23 nM, 3.7 nM, 11.1 nM, 33 nM, and 100 nM. A 1.5 μL aliquot of the compound solution prepared with DMSO was diluted with 250 μL of buffer D, and the thus-diluted solution was dispensed into the 384-well plate at 20 μL/well. Thereafter, human SPR was diluted with buffer D to 150 ng/mL and then dispensed into the 384-well plate at 20 μL/well. Subsequently, 40 μL of ultrapure water containing 120 μM sepiapterin (produced by the method described in L-Sepiapterin, Heterocycles, 2008, 76, 1329-1335 and WO 2013/168693) and 160 μM NADPH (Nacalai) was added to each well, and then reaction was initiated. The reaction mixture was incubated at room temperature for 240 minutes. Thereafter, in order to determine the amount of sepiapterin, the absorbance at 420 nm was measured by applying the 384-well plate to EnSpire multimode plate reader (Perkin Elmer). The percent inhibition (%) of human SPR by the test compound was calculated by the following formula.

[1] abbreviates: Evaluation Example 2, seven concentrations 0.14 nM to 100 nM, 240 minutes at room temperature, read-out: IC50.
The mark [2] stands for this setting: sepiapterin absorbance, Table 41, read-out: concentration at 50% inhibition of human SPR (IC50).

Like-named read-outs stand apart in the source and are kept apart here.

human SPR, sequence (P35270 whole entry): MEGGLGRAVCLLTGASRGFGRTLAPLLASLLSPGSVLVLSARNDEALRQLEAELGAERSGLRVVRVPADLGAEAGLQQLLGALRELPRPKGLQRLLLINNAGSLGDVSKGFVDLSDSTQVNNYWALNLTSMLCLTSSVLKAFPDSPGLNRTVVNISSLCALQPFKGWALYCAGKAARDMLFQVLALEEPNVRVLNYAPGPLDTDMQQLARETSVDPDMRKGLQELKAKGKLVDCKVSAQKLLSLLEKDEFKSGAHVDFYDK

For the molecule `O=C(NC1CC1)c1c(O)n2ncc(/C=C/C(=O)N3CCOCC3)c2n(CC2(F)CC2)c1=O` [Synthesis Example 364, (E)-N-Cyclopropyl-4-((1-fluorocyclopropyl)methyl)-7-hydroxy-3-(3-morpholino-3-oxoprop-1-en-1-yl)-5-oxo-4,5-dihydropyrazolo[1,5-a]pyrimidine-6-carboxamide], the IC50 under setting [1] worked out at 0.63 nM.
In the case of `Cc1nn2c(O)c(C(=O)NC3CC3)c(=O)n(CC(C)C)c2c1/C=C/C(=O)N(C)CCC#N` [Synthesis Example 687, (E)-3-(3-((2-Cyanoethyl)(methyl)amino)-3-oxoprop-1-en-1-yl)-N-cyclopropyl-7-hydroxy-4-isobutyl-2-methyl-5-oxo-4,5-dihydropyrazolo[1,5-a]pyrimidine-6-carboxamide], under setting [2], the IC50 was 0.77 nM.
Take `CC(C)(C)Cn1c(=O)c(C(=O)NC2CC2)c(O)n2nc(-c3cnccn3)cc12` [Synthesis Example 302, N-Cyclopropyl-7-hydroxy-4-neopentyl-5-oxo-2-(pyrazin-2-yl)-4,5-dihydropyrazolo[1,5-a]pyrimidine-6-carboxamide]: the IC50 under setting [1] was determined as 2.69 nM.
As for `CC(C)Cn1c(=O)c(C(=O)NC2CC2)c(O)n2ncc(/C=C/C(=O)N3CCO[C@@H](C(F)(F)F)C3)c12` [compound 529, (R,E)-N-Cyclopropyl-7-hydroxy-4-isobutyl-5-oxo-3-(3-oxo-3-(2-(trifluoromethyl)morpholino)prop-1-en-1-yl)-4,5-dihydropyrazolo[1,5-a]pyrimidine-6-carboxamide], the IC50 under setting [1] turned out to be 1.03 nM.
For the molecule `CC(C)Cn1c(=O)c(C(=O)NC2CC2)c(O)n2ncc(/C=C/C(=O)N3C[C@@H](F)[C@@H](F)C3)c12` [Synthesis Example 722, N-Cyclopropyl-3-((E)-3-(cis-3,4-difluoropyrrolidin-1-yl)-3-oxoprop-1-en-1-yl)-7-hydroxy-4-isobutyl-5-oxo-4,5-dihydropyrazolo[1,5-a]pyrimidine-6-carboxamide], the IC50 under setting [2] worked out at 0.81 nM.
As to `CC(C)Cn1c(=O)c(C(=O)NC2CC2)c(O)n2nc(C(N)=O)c(/C=C/C3CCOCC3)c12` [compound 451, (E)-N6-Cyclopropyl-7-hydroxy-4-isobutyl-5-oxo-3-(2-(tetrahydro-2H-pyran-4-yl)vinyl)-4,5-dihydropyrazolo[1,5-a]pyrimidine-2,6-dicarboxamide], under setting [1], the IC50 was determined as 0.69 nM.
As for `Cc1nccnc1Nc1cc2n(CC(C)(C)C)c(=O)c(C(=O)NC3CC3)c(O)n2n1` [Synthesis Example 328, N-Cyclopropyl-7-hydroxy-2-((3-methylpyrazin-2-yl)amino)-4-neopentyl-5-oxo-4,5-dihydropyrazolo[1,5-a]pyrimidine-6-carboxamide], under setting [1], the IC50 turned out to be 1.56 nM.
Same read-out and setting: the result for `CC(C)Cn1c(=O)c(C(=O)NC2CC2)c(O)n2ncc(/C=C/C(=O)N3CCN(C4CC4)CC3)c12` [compound 471, (E)-N-Cyclopropyl-3-(3-(4-cyclopropylpiperazin-1-yl)-3-oxoprop-1-en-1-yl)-7-hydroxy-4-isobutyl-5-oxo-4,5-dihydropyrazolo[1,5-a]pyrimidine-6-carboxamide] reads 1.18 nM.
Turning to `Cc1nn2c(O)c(C(=O)NC3CC3)c(=O)n(CC(C)C)c2c1/C=C/C(=O)N1CCN(CC(F)(F)F)CC1` [Synthesis Example 685, (E)-N-Cyclopropyl-7-hydroxy-4-isobutyl-2-methyl-5-oxo-3-(3-oxo-3-(4-(2,2,2-trifluoroethyl)piperazin-1-yl)prop-1-en-1-yl)-4,5-dihydropyrazolo[1,5-a]pyrimidine-6-carboxamide], the IC50 under setting [2] was determined as 1.23 nM.
As for `CC(C)Cn1c(=O)c(C(=O)NC2CC2)c(O)n2ncc(/C=C/C(=O)N3CCOC[C@@H]3c3ccccc3)c12` [compound 606, (S,E)-N-Cyclopropyl-7-hydroxy-4-isobutyl-5-oxo-3-(3-oxo-3-(3-phenylmorpholino)prop-1-en-1-yl)-4,5-dihydropyrazolo[1,5-a]pyrimidine-6-carboxamide], under setting [1], the IC50 came out at 1.32 nM.
Still for that read-out and setting: the value for `COc1cnc(-c2cc3n(CC(C)(C)C)c(=O)c(C(=O)NC4CC4)c(O)n3n2)cn1` [Synthesis Example 300, N-Cyclopropyl-7-hydroxy-2-(5-methoxypyrazin-2-yl)-4-neopentyl-5-oxo-4,5-dihydropyrazolo[1,5-a]pyrimidine-6-carboxamide] was 9.44 nM.
The same measure, in the same setting: the value for `CC(C)Cn1c(=O)c(C(=O)NC2CC2)c(O)n2ncc(C#N)c12` [Synthesis Example 261, 3-Cyano-N-cyclopropyl-7-hydroxy-4-isobutyl-5-oxo-4,5-dihydropyrazolo[1,5-a]pyrimidine-6-carboxamide] was 2.27 nM; that for `C/C(=C\c1cnn2c(O)c(C(=O)NC3CC3)c(=O)n(CC(C)C)c12)C(=O)N1CCC(F)(F)CC1` [Synthesis Example 253, (E)-N-Cyclopropyl-3-(3-(4,4-difluoropiperidin-1-yl)-2-methyl-3-oxoprop-1-en-1-yl)-7-hydroxy-4-isobutyl-5-oxo-4,5-dihydropyrazolo[1,5-a]pyrimidine-6-carboxamide] was 0.85 nM; that for `COC[C@@H]1COCCN1C(=O)/C=C/c1cnn2c(O)c(C(=O)NC3CC3)c(=O)n(CC(C)C)c12` [compound 532, (R,E)-N-Cyclopropyl-7-hydroxy-4-isobutyl-3-(3-(3-(methoxymethyl)morpholino)-3-oxoprop-1-en-1-yl)-5-oxo-4,5-dihydropyrazolo[1,5-a]pyrimidine-6-carboxamide] was 0.55 nM.
Regarding `CC(C)Cn1c(=O)c(C(=O)NC2CC2)c(O)n2ncc(/C=C/C(=O)N3CCOCC34CC4)c12` [compound 541, (E)-N-Cyclopropyl-7-hydroxy-4-isobutyl-5-oxo-3-(3-oxo-3-(7-oxa-4-azaspiro[2.5]octan-4-yl)prop-1-en-1-yl)-4,5-dihydropyrazolo[1,5-a]pyrimidine-6-carboxamide], under setting [1], the IC50 turned out to be 0.82 nM.
For `CC(C)Cn1c(=O)c(C(=O)NC2CC2)c(O)n2ncc(/C=C/C(=O)N3CCC(C(F)F)CC3)c12` [compound 466, (E)-N-Cyclopropyl-3-(3-(4-(difluoromethyl)piperidin-1-yl)-3-oxoprop-1-en-1-yl)-7-hydroxy-4-isobutyl-5-oxo-4,5-dihydropyrazolo[1,5-a]pyrimidine-6-carboxamide], under setting [1], the IC50 worked out at 1.27 nM.
`CC(C)Cn1c(=O)c(C(=O)NC2CC2)c(O)n2ncc(C(=O)Nc3ccccn3)c12` [Synthesis Example 225, N6-Cyclopropyl-7-hydroxy-4-isobutyl-5-oxo-N3-(pyridin-2-yl)-4,5-dihydropyrazolo[1,5-a]pyrimidine-3,6-dicarboxamide]: the IC50 under setting [1] was determined as 1.84 nM.
Regarding `CC(C)Cn1c(=O)c(C(=O)NC2CC2)c(O)n2ncc(/C=C/C(=O)N3C[C@@H](C)OC[C@H]3C)c12` [Synthesis Example 716, N-Cyclopropyl-3-((E)-3-((2R,5R)-2,5-dimethylmorpholino)-3-oxoprop-1-en-1-yl)-7-hydroxy-4-isobutyl-5-oxo-4,5-dihydropyrazolo[1,5-a]pyrimidine-6-carboxamide], the IC50 under setting [2] worked out at 0.88 nM.
Turning to `CC(C)Cn1c(=O)c(C(=O)NC2CC2)c(O)n2ncc(/C=C/C(=O)N3CCOC(C)(C)C3)c12` [compound 489, (E)-N-Cyclopropyl-3-(3-(2,2-dimethylmorpholino)-3-oxoprop-1-en-1-yl)-7-hydroxy-4-isobutyl-5-oxo-4,5-dihydropyrazolo[1,5-a]pyrimidine-6-carboxamide], the IC50 under setting [1] came out at 0.93 nM.
